Experimental data from patent publication US8785630B2, “Insecticidal triazines and pyrimidines” (Vestaron Corporation, priority 2011, dated 2014).

tested on: beet armyworm (Spodoptera exigua); assay: Insecticidal test for beet armyworm, treated diet surface; type: in vivo; conditions: 100 μg/cm^2 on diet surface, first instar larvae, 32 insects per treatment, observations 24, 48 and 96 hours
Procedure: The compounds identified in Table 8 were prepared according to the previous methods and were tested against beet armyworm and corn earworm as follows:
Insecticidal Test for Beet Armyworm (Spodoptera exigua).
To prepare the test solution, the test compound was Formulated at 3499 ppm in solution as 5 mg compound/1.429 mL of 9 parts acetone: 1 part deionized H2O and vortexed to homogenize. 50 μL of the 3499 ppm (equivalent to 100 μg/cm^2 dose on diet surface area) test solution was pipetted upon the surface of 1 mL of solidified cool Southland Products Incorporated Beet Armyworm Diet (201 Stuart Island Road Lake Village, Ark. 71653) using an Eppendorf Repeater Plus with a 1 mL pipette tip. All pipetting of treatments was done in a Labconco Hood. Thirty minutes were allowed for the acetone to evaporate leaving a dose of 100 μg/cm^2 on the surface of the artificial diet. Two 24 hour old first instar Beet Armyworm (Spodoptera Exigua) larvae were placed in each well of the 128 well Bio-BA 128 Bioassay trays (CD International, Pitman, N.J., 08071, USA) using a #0 fine camel hair paint brush. Bioassay trays were sectioned into treatment groups of 8 with 16 replicates per treatment group (32 insects per treatment). Trays containing the treated diet and larvae were covered with a Bio-CV-16 cover (CD International, Pitman, N.J., 08071, USA) and then placed on a rack under florescent lights at 27° C., 20% relative humidity (RH) in the room, and 16 hr light: 8 hr dark for 96 hours. Observations were made 24, 48 and 96 hours after treatment and infestation. The number of insects dead were counted out of the 32 insects total per treatment and the results are given in a table as a percent mortality at a dose of 100 μg/cm^2. When finished, the tray was moved to the −5° C. freezer and left for 24 hr to insure mortality of the remaining S. exigua. After 24 hours, dispose of entire tray into waste bin.
Keys to the table: Mortality refers to activity against beet army worm (Spodoptera exigua) as defined above at the concentration of 100 μg/cm^2 (A=76-100% mortality, B=51-75% mortality, C=26-50% mortality and D=0-25% mortality).

With `Fc1cccc(F)c1-c1nc(NN=Cc2ccc(OC(F)(F)F)cc2)nc(Nc2ccc(Cl)cc2)n1` [Example 1, N-(4-chlorophenyl)-4-(2,6-difluorophenyl)-6-(2-(4-(trifluoromethoxy)benzylidene)hydrazinyl)-1,3,5-triazin-2-amine] as the compound, how does the mortality at 100 µg/cm2 read?
The mortality at 100 µg/cm2 was 76 to 100%.

Which mortality at 100 µg/cm2 does the source give for `FC(F)(F)Oc1ccc(C=NNc2nc(Nc3ccc(Cl)cc3)nc(-c3ccccc3)n2)cc1` [Example 2, N-(4-chlorophenyl)-4-phenyl-6-(2-(4-(trifluoromethoxy)benzylidene)hydrazinyl)-1,3,5-triazin-2-amine] here?
The mortality at 100 µg/cm2 was 76 to 100%.

For `FC(F)(F)Oc1ccc(C=NNc2nc(Nc3ccc(Cl)cc3)nc(-c3ccc(OC(F)(F)F)cc3)n2)cc1` [Example 3, N-(4-chlorophenyl)-4-(2-(4-(trifluoromethoxy)benzylidene)hydrazinyl)-6-(4-(trifluoromethoxy)phenyl)-1,3,5-triazin-2-amine], which mortality at 100 µg/cm2 is on record?
Its mortality at 100 µg/cm2 is 26 to 50%.

How did the mortality at 100 µg/cm2 turn out when `Fc1cccc(Cl)c1-c1nc(NN=Cc2ccc(OC(F)(F)F)cc2)nc(Nc2ccc(Cl)cc2)n1` [Example 4] was run?
The mortality at 100 µg/cm2 was 76 to 100%.

For `Fc1ccc(Nc2nc(NN=Cc3ccc(OC(F)(F)F)cc3)nc(-c3c(F)cccc3F)n2)cc1C(F)(F)F` [Example 5, 4-(2,6-difluorophenyl)-N-(4-fluoro-3-(trifluoromethyl)phenyl)-6-(2-(4-(trifluoromethoxy)benzylidene)hydrazinyl)-1,3,5-triazin-2-amine], which mortality at 100 µg/cm2 is on record?
Its mortality at 100 µg/cm2 is 26 to 50%.

`Fc1cccc(F)c1-c1nc(NN=Cc2ccc(OC(F)(F)F)cc2)nc(Nc2ccc(OC(F)(F)F)cc2)n1` [Example 6, 4-(2,6-difluorophenyl)-6-(2-(4-(trifluoromethoxy)benzylidene)hydrazinyl)-N-(4-(trifluoromethoxy)phenyl)-1,3,5-triazin-2-amine] was tested. Which mortality at 100 µg/cm2 did it give?
The mortality at 100 µg/cm2 was 26 to 50%.

For `Fc1cccc(F)c1-c1nc(NN=Cc2ccc(OC(F)(F)F)cc2)nc(Nc2cccc(C(F)(F)F)c2)n1` [Example 7, 4-(2,6-difluorophenyl)-6-(2-(4-(trifluoromethoxy)benzylidene)hydrazinyl)-N-(3-(trifluoromethyl)phenyl)-1,3,5-triazin-2-amine], which mortality at 100 µg/cm2 is on record?
Its mortality at 100 µg/cm2 is 0 to 25%.

For `Fc1cccc(F)c1-c1nc(NCc2ccc(Cl)nc2)nc(NN=Cc2ccc(OC(F)(F)F)cc2)n1` [Example 8, N-((6-chloropyridin-3-yl)methyl)-4-(2,6-difluorophenyl)-6-(2-(4-(trifluoromethoxy)benzylidene)hydrazinyl)-1,3,5-triazin-2-amine], which mortality at 100 µg/cm2 is on record?
The mortality at 100 µg/cm2 was 76 to 100%.

Which mortality at 100 µg/cm2 does the source give for `Fc1cccc(F)c1-c1nc(NN=Cc2ccc(OC(F)(F)F)cc2)nc(Nc2ccc(Cl)nc2)n1` [Example 9, N-(6-chloropyridin-3-yl)-4-(2,6-difluorophenyl)-6-(2-(4-(trifluoromethoxy)benzylidene)hydrazinyl)-1,3,5-triazin-2-amine] here?
Its mortality at 100 µg/cm2 is 76 to 100%.

For `Fc1cccc(F)c1-c1nc(NN=Cc2ccc(OC(F)(F)C(F)F)cc2)nc(Nc2ccc(Cl)cc2)n1` [Example 10, N-(4-chlorophenyl)-4-(2,6-difluorophenyl)-6-(2-(4-(1,1,2,2-tetrafluoroethoxy)benzylidene)hydrazinyl)-1,3,5-triazin-2-amine], which mortality at 100 µg/cm2 is on record?
Its mortality at 100 µg/cm2 is 76 to 100%.

With `Fc1cccc(Cl)c1-c1nc(NN=Cc2ccc(OC(F)(F)C(F)F)cc2)nc(Nc2ccc(Cl)cc2)n1` [Example 11, 4-(2-chloro-6-fluorophenyl)-N-(4-chlorophenyl)-6-(2-(4-(1,1,2,2-tetrafluoroethoxy)benzylidene)hydrazinyl)-1,3,5-triazin-2-amine] as the compound, how does the mortality at 100 µg/cm2 read?
The mortality at 100 µg/cm2 was 76 to 100%.

How did the mortality at 100 µg/cm2 turn out when `Fc1cccc(Cl)c1-c1nc(NN=Cc2ccc(OC(F)(F)C(F)F)cc2)nc(Nc2ccc(Cl)nc2)n1` [Example 12, 4-(2-chloro-6-fluorophenyl)-N-(6-chloropyridin-3-yl)-6-(2-(4-(1,1,2,2-tetrafluoroethoxy)benzylidene)hydrazinyl)-1,3,5-triazin-2-amine] was run?
Its mortality at 100 µg/cm2 is 76 to 100%.

`Fc1cccc(Cl)c1-c1nc(NN=Cc2ccc(OC(F)(F)F)cc2)nc(Nc2ccc(Cl)nc2)n1` [Example 13, 4-(2-chloro-6-fluorophenyl)-N-(6-chloropyridin-3-yl)-6-(2-(4-(trifluoromethoxy)benzylidene)hydrazinyl)-1,3,5-triazin-2-amine] was tested. Which mortality at 100 µg/cm2 did it give?
Its mortality at 100 µg/cm2 is 76 to 100%.

How did the mortality at 100 µg/cm2 turn out when `FC(F)(F)Oc1ccc(C=NNc2nc(Nc3ccc(Cl)cc3)nc(-c3c(Cl)cccc3Cl)n2)cc1` [Example 14, N-(4-chlorophenyl)-4-(2,6-dichlorophenyl)-6-(2-(4-(trifluoromethoxy)benzylidene)hydrazinyl)-1,3,5-triazin-2-amine] was run?
The mortality at 100 µg/cm2 was 51 to 75%.

How did the mortality at 100 µg/cm2 turn out when `Fc1cccc(F)c1-c1nc(NN=Cc2ccc(OC(F)(F)C(F)F)cc2)nc(Nc2ccc(Cl)nc2)n1` [Example 15, N-(6-chloropyridin-3-yl)-4-(2,6-difluorophenyl)-6-(2-(4-(1,1,2,2-tetrafluoroethoxy)benzylidene)hydrazinyl)-1,3,5-triazin-2-amine] was run?
The mortality at 100 µg/cm2 was 76 to 100%.

For `FC(F)(F)Oc1ccc(C=NNc2nc(Nc3ccc(Cl)nc3)nc(-c3c(Cl)cccc3Cl)n2)cc1` [Example 16, N-(6-chloropyridin-3-yl)-4-(2,6-dichlorophenyl)-6-(2-(4-(trifluoromethoxy)benzylidene)hydrazinyl)-1,3,5-triazin-2-amine], which mortality at 100 µg/cm2 is on record?
Its mortality at 100 µg/cm2 is 76 to 100%.

With `CCc1ccc(C=NNc2nc(Nc3ccc(Cl)cc3)nc(-c3c(F)cccc3Cl)n2)cc1` [Example 17, 4-(2-chloro-6-fluorophenyl)-N-(4-chlorophenyl)-6-(2-(4-ethylbenzylidene)hydrazinyl)-1,3,5-triazin-2-amine] as the compound, how does the mortality at 100 µg/cm2 read?
The mortality at 100 µg/cm2 was 76 to 100%.

Which mortality at 100 µg/cm2 does the source give for `N#Cc1ccc(C=NNc2nc(Nc3ccc(Cl)cc3)nc(-c3c(F)cccc3Cl)n2)cc1` [Example 18] here?
The mortality at 100 µg/cm2 was 76 to 100%.

For `CCCC=NNc1nc(Nc2ccc(Cl)cc2)nc(-c2c(F)cccc2Cl)n1` [Example 19, 4-(2-butylidenehydrazinyl)-6-(2-chloro-6-fluorophenyl)-N-(4-chlorophenyl)-1,3,5-triazin-2-amine], which mortality at 100 µg/cm2 is on record?
Its mortality at 100 µg/cm2 is 76 to 100%.

Which mortality at 100 µg/cm2 does the source give for `Fc1cccc(Cl)c1-c1nc(NN=CCc2ccccc2)nc(Nc2ccc(Cl)cc2)n1` [Example 20, 4-(2-chloro-6-fluorophenyl)-N-(4-chlorophenyl)-6-(2-(2-phenylethylidene)hydrazinyl)-1,3,5-triazin-2-amine] here?
The mortality at 100 µg/cm2 was 76 to 100%.

Which mortality at 100 µg/cm2 does the source give for `CC(=NNc1nc(Nc2ccc(Cl)cc2)nc(-c2c(F)cccc2Cl)n1)c1ccc(OC(F)(F)F)cc1` [Example 21, 4-(2-chloro-6-fluorophenyl)-N-(4-chlorophenyl)-6-(2-(1-(4-(trifluoromethoxy)phenyl)ethylidene)hydrazinyl)-1,3,5-triazin-2-amine] here?
Its mortality at 100 µg/cm2 is 76 to 100%.

With `Fc1cccc(Cl)c1-c1nc(NCc2ccc(Cl)nc2)nc(NN=Cc2ccc(OC(F)(F)F)cc2)n1` [Example 22, 4-(2-chloro-6-fluorophenyl)-N-((6-chloropyridin-3-yl)methyl)-6-(2-(4-(trifluoromethoxy)benzylidene)hydrazinyl)-1,3,5-triazin-2-amine] as the compound, how does the mortality at 100 µg/cm2 read?
The mortality at 100 µg/cm2 was 76 to 100%.

For `Cc1ccc(Nc2nc(NN=Cc3ccc(OC(F)(F)F)cc3)nc(-c3c(F)cccc3Cl)n2)cc1` [Example 23, 4-(2-chloro-6-fluorophenyl)-N-(p-tolyl)-6-(2-(4-(trifluoromethoxy)benzylidene)hydrazinyl)-1,3,5-triazin-2-amine], which mortality at 100 µg/cm2 is on record?
The mortality at 100 µg/cm2 was 76 to 100%.
